From patent US9388170B2, “Substituted aminoquinazolines useful as kinases inhibitors” (TELIGENE LTD., priority 2012, dated 2016)
Values after ≈ are worked out from the molar mass of the structure shown. Where two headings read alike, the source gives them in different places.

What was measured:
[1] = In vivo NCI-H1975 study AST and ALT change; details: NCI-H1975 xenograft, nude mice, 15 mg/kg; in U/L (unit assumed)
Method: (§1) A representative protocol for the in vivo experiment is as followed to establish the subcutaneous NCI-H1975 cell line xenograft model in nude mice and to evaluate the in vivo therapeutic efficacy of the compounds: H1975 cells were cultured in RPMI1640 containing 10% fetal bovine serum, 1% L-glutamine, 100 U/mL penicillinG and 100 μg/mL streptomycin. Cells in logarithmic growth phase were harvested and resuspended in 1×PBS for implantation. Tumor xenografts were established by injecting tumor cells 5×10^6/mouse into the right flank by sc under sterile conditions. When the tumors reached an appropriate size (100-200 mm^3), mice were randomized into 6 mice per group (8 mice in control group). The tumors were measured using a caliper in two dimensions, length (a), and width (b). Tumor volumes were estimated from measurements of two diameters of the individual tumors as follows: Tumor Volume(mm^3)=(a×b^2)/2 The tumor sizes and animal body weights were measured twice a week. Mice were observed daily for clinical signs. Blood samples were collected 2 hours after last treatment, plasma samples were prepared and stored at -80° C. Tumor tissues were separated, weighed, taken picture, and subsequently stored at -80° C. for further analysis. All animal experiments were performed in accordance with the Guidelines for Use and Care of Animals of the University of Traditional Medicine. The parameters for in vivo efficacy evaluation were calculated according to the guidance of SFDA. Percent T/C (%) was calculated with the following formula: T/C (%)=(TRTV/CRTV)×100%, where TRTV and CRTV stand for relative tumor volume in treatment group and vehicle control group, respectively. Relative tumor volume (RTV) was calculated using the formula: RTV=Vt/V0, where Vt represents volume on testing day, and V0 represents volume on first day of treatment.

[2] = In vivo NCI-H1975 xenograft study body weight change; details: nude mice, 15 mg/kg
Method: as §1

[3] = In vivo A431 xenograft body weight change; details: nude mice, 10 mg/kg
Method: (§2) A representative protocol for the in vivo experiment to establish the subcutaneous A431 cell line xenograft model in nude mice and to evaluate the in vivo therapeutic efficacy of the compounds is similar to the protocol described for subcutaneous NCI—H1975 cell line xenograft model in nude mice. […] Tumor growth inhibition (TGI, %) was calculated.

[4] = system: NCI—H1975; assay: Cell proliferation assay (MTT), NCI-H1975; type: cell-based; details: Homo sapiens, NCI—H1975 cells, 72 hours, read-out: potency (IC50), NCI—H1975 cell assay
Method: (§3) A Representative Number of Compounds were Assayed Against Different Cancer Cell Lines Such as A431, BT474, NCI—H1975, SK—OV-3, SK—Br-3 and A549 Using the Cell Proliferation Assays:
(§4) 1. 5×10^3 cells per well in 100 μl of medium were seeded in 96-well plate, here the medium contained 5% FBS
(§5) 2. 24 hours later, 100 μl fresh medium was added with various concentrations of compounds into each well, while the medium here was free of FBS.
(§6) 3. After the cells were treated with compounds for 72 hours, 20 μl MTT (5 mg/ml) was added into each well, and then the assay plate was incubated at 37° C. for 4 more hours.
(§7) 4. The assay plate was centrifuged at 800 g for 10 min. The medium was aspirated, 150 μl DMSO was added into each well. The plate was gently shaken for 10 min.
(§8) 5. The absorbance at 570 nm was measured on the plate reader.

[5] = Solubility measurement (HPLC); type: physicochemical; details: thermodynamic from solid
Method: The compound was diluted with acetonitrile to 100 mL.
The solution was shook for 2 minutes and left for 30 minutes at 25° C. After standing for 30 minutes, precipitate was formed in the bottom of the EP. The solutions was filtered through 0.2 um membrane filter, and then diluted by 50 times with water.
The standard and sample solutions were injected into the HPLC on a Shim-Pack CLC-ODS C18 column (150 mm×6.0 mm, 5 um) with the same volume. The mobile phase consisted of acetonitrile with 2% […] −20 mM KH2PO4 buffer (pH=6.8) at a flow rate of 1 mL/minutes (40:60). The detection wavelength is at 264 nm. Calculation: solubility of sample=the concentration of standard×Area of sample×50/Area of standard.

[6] = system: BT474; assay: Cell proliferation assay (MTT), BT474; type: cell-based; details: Homo sapiens, BT-474, BT474 cells, 72 hours
Method: as §3, §4, §5, §6, §7, §8

[7] = target: EGFR (T790M/L858R) (Homo sapiens (Human), UniProt P00533, L858R/T790M); assay: In vitro EGFR (T790M/L858R) kinase activity inhibition assay (Kinase-Glo Plus luminescence); type: biochemical; details: 10 μM ATP, read-out: potency (IC50), enzyme assay (EGFR/T790M)
Chain of EGFR (T790M/L858R) (P00533 25-1210 T790M/L858R): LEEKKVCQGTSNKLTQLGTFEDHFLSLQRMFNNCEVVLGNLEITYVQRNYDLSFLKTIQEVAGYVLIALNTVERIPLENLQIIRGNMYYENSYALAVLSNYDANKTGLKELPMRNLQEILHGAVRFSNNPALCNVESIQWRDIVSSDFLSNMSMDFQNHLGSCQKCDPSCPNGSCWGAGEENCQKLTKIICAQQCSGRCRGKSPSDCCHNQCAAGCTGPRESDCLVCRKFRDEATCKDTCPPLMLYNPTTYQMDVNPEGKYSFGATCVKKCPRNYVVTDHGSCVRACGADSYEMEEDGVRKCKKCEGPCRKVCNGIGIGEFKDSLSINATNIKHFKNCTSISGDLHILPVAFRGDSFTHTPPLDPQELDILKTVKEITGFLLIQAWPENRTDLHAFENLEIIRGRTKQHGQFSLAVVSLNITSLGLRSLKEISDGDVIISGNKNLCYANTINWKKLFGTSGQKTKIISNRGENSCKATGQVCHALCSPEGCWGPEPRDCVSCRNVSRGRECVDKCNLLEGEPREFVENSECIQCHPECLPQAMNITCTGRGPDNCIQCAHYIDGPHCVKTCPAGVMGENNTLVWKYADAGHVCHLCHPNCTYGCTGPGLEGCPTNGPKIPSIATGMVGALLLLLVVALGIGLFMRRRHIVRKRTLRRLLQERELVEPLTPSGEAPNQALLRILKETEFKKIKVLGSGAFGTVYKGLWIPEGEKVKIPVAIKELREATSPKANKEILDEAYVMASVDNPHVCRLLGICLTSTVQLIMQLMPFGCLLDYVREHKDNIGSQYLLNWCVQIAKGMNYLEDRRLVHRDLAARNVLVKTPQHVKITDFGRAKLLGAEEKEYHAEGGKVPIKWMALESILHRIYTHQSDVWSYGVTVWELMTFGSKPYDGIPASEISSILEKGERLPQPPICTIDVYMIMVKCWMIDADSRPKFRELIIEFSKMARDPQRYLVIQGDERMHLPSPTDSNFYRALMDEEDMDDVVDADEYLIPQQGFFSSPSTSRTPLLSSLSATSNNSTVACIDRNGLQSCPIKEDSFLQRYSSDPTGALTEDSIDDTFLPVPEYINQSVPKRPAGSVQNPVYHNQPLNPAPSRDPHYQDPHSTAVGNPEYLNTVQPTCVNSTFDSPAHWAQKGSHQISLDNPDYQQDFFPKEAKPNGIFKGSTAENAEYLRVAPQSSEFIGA
Method: 2. […] It measures kinase activity by quantitating the amount of ATP remaining in solution following a kinase reaction. The luminescent signal from the assay is correlated with the amount of ATP present and is inversely correlated with the amount of kinase activity. […] Luminescence signal was measured using a BioTek Synergy 2 microplate reader.
3. […] The luminescence data were analyzed using the computer software, Graphpad Prism. […] The IC50 value was determined by the concentration causing a half-maximal percent activity.

[8] = system: SK—OV-3; assay: Cell proliferation assay (MTT), SK-OV-3; type: cell-based; details: Homo sapiens, SK—OV-3 cells, 72 hours, read-out: potency (IC50), SK—OV-3 cell assay
Method: as §3, §4, §5, §6, §7, §8

[9] = system: A549; assay: Cell proliferation assay (MTT), A549; type: cell-based; details: Homo sapiens, A549 cells, 72 hours, read-out: potency (IC50), A549 cell assay
Method: as §3, §4, §5, §6, §7, §8

[10] = system: NCI—H1975 cell line xenograft; assay: In vivo subcutaneous NCI-H1975 xenograft efficacy; details: nude mice
Method: A representative protocol for the in vivo experiment is as followed to establish the subcutaneous NCI—H1975 cell line xenograft model in nude mice and to evaluate the in vivo therapeutic efficacy of the compounds: H1975 cells were cultured in RPMI1640 containing 10% fetal bovine serum, 1% L-glutamine, 100 U/mL penicillinG and 100 μg/mL streptomycin. Cells in logarithmic growth phase were harvested and resuspended in 1×PBS for implantation.
Tumor xenografts were established by injecting tumor cells 5×10^6/mouse into the right flank by sc under sterile conditions. When the tumors reached an appropriate size (100-200 mm^3), mice were randomized into 6 mice per group (8 mice in control group). The tumors were measured using a caliper in two dimensions, length (a), and width (b). […]
The tumor sizes and animal body weights were measured twice a week. […] The parameters for in vivo efficacy evaluation were calculated according to the guidance of SFDA. Percent T/C (%) was calculated with the following formula: T/C (%)=(TRTV/CRTV)×100%, where TRTV and CRTV stand for relative tumor volume in treatment group and vehicle control group, respectively. Relative tumor volume (RTV) was calculated using the formula: RTV=Vt/V0, where Vt represents volume on testing day, and V0 represents volume on first day of treatment. […]

[11] = system: A431; assay: Cell proliferation assay (MTT), A431; type: cell-based; details: Homo sapiens, A-431, A431 cells, 72 hours
Method: as §3, §4, §5, §6, §7, §8

[12] = system: SK—Br-3; assay: Cell proliferation assay (MTT), SK-Br-3; type: cell-based; details: Homo sapiens, SK—Br-3 cells, 72 hours, read-out: potency (IC50), SK—Br-3 cell assay
Method: as §3, §4, §5, §6, §7, §8

[13] = system: A431 cell line xenograft; assay: In vivo subcutaneous A431 xenograft efficacy; details: nude mice, 10 mg/kg by oral gavage once daily for 14 days
Method: as §2

[14] = aqueous buffer, pH 6.8 buffer solution (20 mM), 25° C., read-out: Solubility at pH 6.8
[15] = buffer solution (pH 7.6), 25 °C, pH 7.6, aqueous buffer, read-out: Solubility at pH 7.6

Compound | ALT [1] | AST [1] | Day 7 Weight change [2] | Body weight change, Day 7 [3] | Body weight change, Day 10 [3] | IC50 [4] | solubility at 30 min [5, 14] | solubility at 30 min [5, 15] | IC50 [6] | IC50 [7] | IC50 [8] | IC50 [9] | efficacy in the NCI—H1975 xenograft study [10] | IC50 [11] | IC50 [12] | Tumor growth inhibition (TGI, %) [13]
CN(C)C/C=C/C(=O)Nc1cc2c(Nc3ccc(F)c(Cl)c3)ncnc2cc1O[C@H]1CCOC1 [Afatinib, reference compound] | 49.50 | 265.67 | −0.9% | −2.2% | 0.4% |  |  |  |  |  |  |  |  |  |  | 
C#Cc1cccc(Nc2ncnc3cc(O[C@H]4CCOC4)c(NC(=O)/C=C/CN(C)C)cc23)c1 [Compound 13, (S,E)-4-(dimethylamino)-N-(4-((3-ethynylphenyl)amino)-7-((tetrahydrofuran-3-yl)oxy)quinazolin-6-yl)but-2-enamide] |  |  | 0.1% |  |  | < 10 µM | 150 µg/mL (≈ 328 µM) | 25 µg/mL (≈ 54.6 µM) | 0.057 µM | < 0.1 µM | < 10 µM | < 10 µM | good efficacy | 3.1 µM | < 10 µM | 
C#Cc1cccc(Nc2ncnc3cc(O[C@H]4CCOC4)c(NC(=O)/C=C/CN(CC)CC)cc23)c1 [Compound 20, (S,E)-4-(diethylamino)-N-(4-((3-ethynylphenyl)amino)-7-((tetrahydrofuran-3-yl)oxy)quinazolin-6-yl)but-2-enamide] | 41.67 | 142.33 | 3.5% | 1.5% | 4.3% | < 10 µM | 3370 µg/mL (≈ 6950 µM) | 238 µg/mL (≈ 490 µM) |  |  | < 10 µM | < 10 µM |  |  | < 10 µM | 94%
